Test systems include HL-60(TB) leukemia; HCC-2998 colon; NCI-H226 lung; UACC-257 melanoma; HOP-62 NSCLC; DU-145 prostate; UO-31 renal; A549 NSCLC; NCI-H460 lung; U251 CNS.
Common to all, as to assay: growth of human tumour cells (NCI), 48 h

Several values for one entry are separate records, joined by “and”; a condition that tells them apart may be missing. Identical values can stand only once.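 Values below derive from 48-hour exposures of cells grown in 96-well plates, with endpoints linearly interpolated between the two concentrations bracketing the appropriate inhibition level. GI50 is the concentration that inhibits growth by half. TGI: total growth inhibition.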 Some results are limits rather than exact numbers.

As to `CN(C)c1ccc2nc3ccc(=O)cc-3sc2c1`, the GI50 in the assay with HL-60(TB) leukemia is 0.77 µM; in the assay with HCC-2998 colon, 0.697 µM; in the assay with NCI-H226 lung it was 7.59 µM; in the assay on UACC-257 melanoma, 0.38 µM; in the assay with HOP-62 NSCLC, 0.763 µM; in the assay on DU-145 prostate it was 1.8 µM. For the same compound, the GI50 with UO-31 renal is 0.545 µM; with A549 NSCLC, 0.312 µM; with NCI-H460 lung, 1.55 µM; in the assay on U251 CNS, 0.72 µM. Also, the TGI was 3.94 µM with HL-60(TB) leukemia; above 100 µM in the assay on HCC-2998 colon; above 85.1 µM with NCI-H226 lung; 3.29 µM with UACC-257 melanoma; above 56.9 µM with HOP-62 NSCLC; 6.17 µM in the assay with DU-145 prostate. Also, the TGI in the assay on UO-31 renal was above 74.5 µM; in the assay with A549 NSCLC, 3.02 µM; in the assay with NCI-H460 lung, 15.7 µM; in the assay with U251 CNS, 32.2 µM.

With `CN1CCc2c(Sc3ccc(C(=O)NO)cc3)c3ccccc3n2C1`, the GI50 was 2.95 µM with HL-60(TB) leukemia; 1.77 µM with HCC-2998 colon; 2.75 µM with NCI-H226 lung; 1.75 µM in the assay on UACC-257 melanoma; 1.97 µM in the assay with HOP-62 NSCLC; 2.57 µM in the assay on DU-145 prostate. Further, the GI50 was 2.33 µM in the assay with UO-31 renal, 3.29 µM in the assay on A549 NSCLC, 2.34 µM in the assay with NCI-H460 lung and 1.6 µM in the assay with U251 CNS. Besides, the TGI with HL-60(TB) leukemia worked out at 8.09 µM; in the assay with HCC-2998 colon, 3.86 µM; in the assay on NCI-H226 lung, 14.9 µM; with UACC-257 melanoma it was 9.1 µM; in the assay on HOP-62 NSCLC, 6.12 µM; in the assay with DU-145 prostate, 9.37 µM. The TGI with UO-31 renal was 14.9 µM; in the assay on A549 NSCLC, 12.9 µM; with NCI-H460 lung it was 7.73 µM; in the assay on U251 CNS, 3.29 µM.

For `Cc1sc2nc(NCCc3c[nH]c4ccc(Cl)cc34)[nH]c(=O)c2c1C`, the GI50 was 2.34 µM in the assay on HL-60(TB) leukemia; 2.39 µM with HCC-2998 colon; 3.18 µM with NCI-H226 lung; 2.14 µM in the assay with UACC-257 melanoma; 2.52 µM with HOP-62 NSCLC; 3.59 µM in the assay on DU-145 prostate. The GI50 in the assay on UO-31 renal was 1.22 µM; with A549 NSCLC it was 2.13 µM; in the assay with NCI-H460 lung, 2.54 µM; in the assay on U251 CNS, 2.26 µM. For the same compound, the TGI with HL-60(TB) leukemia was 5.91 µM; with HCC-2998 colon it was 5.71 µM; with NCI-H226 lung it was 17.4 µM; in the assay with UACC-257 melanoma, 6.34 µM; with HOP-62 NSCLC, 10.4 µM; in the assay with DU-145 prostate it was 13 µM. Moreover, the TGI is 2.77 µM in the assay with UO-31 renal, 5.09 µM with A549 NSCLC, 7.95 µM with NCI-H460 lung and 6.94 µM with U251 CNS.

For the compound `CCOC(=O)N1CCN(C(=O)c2ccc(C(F)(F)F)nc2Nc2cc(Cl)ccc2C)CC1`, the GI50 in the assay with HL-60(TB) leukemia is 12.1 µM; in the assay on HCC-2998 colon it was 11.6 µM; with NCI-H226 lung, 20.5 µM; in the assay with UACC-257 melanoma, 27.2 µM; in the assay on HOP-62 NSCLC it was 25.8 µM; with DU-145 prostate it was 48.2 µM. The GI50 in the assay on UO-31 renal was 7.82 µM; in the assay with A549 NSCLC it was 14.8 µM; in the assay with NCI-H460 lung it was 16.2 µM; in the assay with U251 CNS, 27.1 µM. The TGI in the assay with HL-60(TB) leukemia was 38 µM; in the assay with HCC-2998 colon, 30.1 µM; in the assay on NCI-H226 lung, 68.6 µM; in the assay with UACC-257 melanoma, above 100 µM; in the assay with HOP-62 NSCLC it was above 100 µM; in the assay with DU-145 prostate, above 100 µM. Besides, the TGI in the assay with UO-31 renal is above 100 µM; in the assay on A549 NSCLC it was above 100 µM; in the assay with NCI-H460 lung, 33.6 µM; in the assay on U251 CNS, above 100 µM.

Take `COC(=O)[C@@H](NC(=O)[C@@H](OC)[C@@H]1Cc2cc3cc(OC4CC(OC5CC(O)C(O)C(C)O5)C(O)C(C)O4)c(C)c(O)c3c(O)c2C(=O)[C@H]1OC1CC(OC2CC(OC3CC(C)(O)C(O)C(C)O3)C(O)C(C)O2)C(O)C(C)O1)C(C)C` (stereo partly drawn): the GI50 in the assay on HL-60(TB) leukemia was 0.348 µM; with HCC-2998 colon, 0.206 µM; with NCI-H226 lung it was 0.109 µM; in the assay with UACC-257 melanoma it was 0.128 µM; in the assay on HOP-62 NSCLC it was 0.0824 µM; in the assay with DU-145 prostate it was 0.158 µM. Moreover, the GI50 in the assay on UO-31 renal is 0.129 µM; in the assay on A549 NSCLC, 0.141 µM; in the assay with NCI-H460 lung, 0.111 µM; in the assay on U251 CNS it was 0.106 µM. The TGI was above 32.5 µM with HL-60(TB) leukemia; above 32.5 µM in the assay on HCC-2998 colon; 0.963 µM in the assay with NCI-H226 lung; 8.91 µM in the assay with UACC-257 melanoma; above 32.5 µM with HOP-62 NSCLC; above 32.5 µM in the assay with DU-145 prostate. Moreover, the TGI is 4.4 µM with UO-31 renal, above 32.5 µM in the assay on A549 NSCLC, 5.7 µM with NCI-H460 lung and 1.6 µM in the assay with U251 CNS.

In the case of `Fc1ccc(Nc2cc(-n3nnc4ccccc43)nc3ccccc23)cc1`, the GI50 is above 100 µM in the assay on HL-60(TB) leukemia; above 100 µM in the assay with HCC-2998 colon; 19 µM in the assay on NCI-H226 lung; 70.1 µM in the assay with UACC-257 melanoma; 13.8 µM in the assay on HOP-62 NSCLC; above 56.2 µM in the assay with DU-145 prostate. For the same compound, the GI50 in the assay on UO-31 renal is above 55.9 µM; in the assay with A549 NSCLC, 64.4 µM; with NCI-H460 lung, 26.2 µM; in the assay with U251 CNS it was 27.6 µM. For the same compound, the TGI is above 100 µM in the assay with HL-60(TB) leukemia; above 100 µM in the assay on HCC-2998 colon; above 69 µM with NCI-H226 lung; above 100 µM in the assay on UACC-257 melanoma; above 34 µM with HOP-62 NSCLC; above 100 µM with DU-145 prostate. The TGI was above 100 µM in the assay on UO-31 renal, above 100 µM in the assay with A549 NSCLC, above 100 µM in the assay with NCI-H460 lung and above 76.1 µM with U251 CNS.

For `Cc1cc(NC(=O)c2ccc(C)c(Nc3nccc(-c4cccnc4)n3)c2)cc(-n2cnc(C)c2)c1`, the GI50 with HL-60(TB) leukemia was 14.5 µM; in the assay with HCC-2998 colon, 17.1 µM; in the assay on NCI-H226 lung, 1.68 µM; in the assay with UACC-257 melanoma it was 1.53 µM; in the assay with HOP-62 NSCLC, 1.68 µM; with DU-145 prostate, 1.96 µM. Further, the GI50 in the assay with UO-31 renal is 1.97 µM; in the assay with A549 NSCLC, 0.492 µM; in the assay on NCI-H460 lung it was 0.0794 µM; in the assay on U251 CNS, 1.99 µM. Moreover, the TGI is above 50 µM in the assay on HL-60(TB) leukemia; above 35.6 µM with HCC-2998 colon; 5.39 µM with NCI-H226 lung; 5.92 µM in the assay on UACC-257 melanoma; 6.7 µM in the assay with HOP-62 NSCLC; 9.06 µM in the assay with DU-145 prostate. For the same compound, the TGI was 5.3 µM in the assay on UO-31 renal, 8.7 µM in the assay on A549 NSCLC, 4.16 µM in the assay with NCI-H460 lung and 7.61 µM in the assay on U251 CNS.

As to `Cc1n(Cc2ccc3ccccc3c2)cc[n+]1Cc1ccc2ccccc2c1`, the GI50 in the assay on HL-60(TB) leukemia is 0.427 µM; in the assay on HCC-2998 colon it was 0.717 µM; with NCI-H226 lung, 1.85 µM; in the assay with UACC-257 melanoma, 0.588 µM; in the assay on HOP-62 NSCLC it was 1.6 µM; in the assay with DU-145 prostate, 1.87 µM. Besides, the GI50 is 9.26 µM in the assay on UO-31 renal, 3.81 µM in the assay on A549 NSCLC, 1.59 µM with NCI-H460 lung and 0.818 µM in the assay on U251 CNS. The TGI in the assay on HL-60(TB) leukemia was found to be 2.01 µM; with HCC-2998 colon it was 2.27 µM; in the assay with NCI-H226 lung, 10.4 µM; in the assay on UACC-257 melanoma it was 2.58 µM; with HOP-62 NSCLC, 8.35 µM; in the assay with DU-145 prostate it was 12.1 µM. The TGI in the assay with UO-31 renal is 22 µM; in the assay on A549 NSCLC, 21.3 µM; with NCI-H460 lung, 10.7 µM; in the assay on U251 CNS, 7.98 µM.

On to `O=C(Nc1cccc(Cl)c1)c1cc2ccccc2cc1O`, for which the GI50 in the assay with HL-60(TB) leukemia is 3.16 µM and 1.61 µM; with HCC-2998 colon, 3.9 µM and 3.39 µM; with NCI-H226 lung it was 4.65 µM and 2.68 µM; in the assay with UACC-257 melanoma, 1.03 µM and 2.26 µM; in the assay with HOP-62 NSCLC it was 2.8 µM and 2.47 µM; in the assay on DU-145 prostate, 3.07 µM and 2.38 µM. The GI50 in the assay on UO-31 renal is 0.34 µM; with A549 NSCLC it was 3.63 µM and 3.31 µM; in the assay on NCI-H460 lung, 2.47 µM and 2.48 µM; in the assay on U251 CNS, 1.74 µM. In addition, the TGI in the assay on HCC-2998 colon was above 100 µM; in the assay with NCI-H226 lung, above 100 µM; with UACC-257 melanoma, 7.31 µM and 6.11 µM; with DU-145 prostate it was above 100 µM; in the assay on UO-31 renal, above 100 µM; in the assay with A549 NSCLC, above 100 µM. For the same compound, the TGI with NCI-H460 lung was above 100 µM; in the assay with U251 CNS, 19.6 µM and 8.44 µM.

Take `CCN(CC)CCNCC(=O)Oc1ccc(/C=C/C(=O)CC(=O)/C=C/c2ccc(OC(=O)CNCCN(CC)CC)c(OC)c2)cc1OC`: the GI50 with HL-60(TB) leukemia is 3.39 µM; in the assay on HCC-2998 colon it was 2.1 µM; in the assay on NCI-H226 lung, 6.97 µM; in the assay with UACC-257 melanoma it was 3.58 µM; in the assay with HOP-62 NSCLC it was 3.34 µM; with DU-145 prostate, 2.74 µM. Also, the GI50 is 3.48 µM in the assay with UO-31 renal, 6.73 µM in the assay with A549 NSCLC, 3.41 µM with NCI-H460 lung and 3.83 µM in the assay on U251 CNS. The TGI stood at 91.8 µM with HL-60(TB) leukemia; 4.36 µM in the assay with HCC-2998 colon; 22.1 µM in the assay with NCI-H226 lung; 16.9 µM in the assay with UACC-257 melanoma; 12.8 µM in the assay with HOP-62 NSCLC; 9.56 µM in the assay with DU-145 prostate. For the same compound, the TGI in the assay with UO-31 renal stood at 11 µM; in the assay on A549 NSCLC, 39.8 µM; in the assay with NCI-H460 lung, 22.2 µM; in the assay with U251 CNS, 16.2 µM.

The record behind these values is PubChem BioAssay (NCI).
